Data set [1] concerns hepatocellular carcinoma HepG2 cell line. As to the kind of experiment: MTT cytotoxicity assay, HepG2. In kind it is cell-based, human. The following applies: 24 h treatment, mean ± SE. On the procedure: All the newly synthesized analogs were evaluated for their in vitro cytotoxicity against the hepatocellular carcinoma HepG2 cell line. Podo was utilized as a reference control in the current study. […] The N-phenyl triazinone derivative 9 was further investigated for its cytotoxic effects against normal liver cell line HL-7702.
MTT colorimetric assay was carried out to investigate the impact of the newly synthesized compounds 2–11 on hepatocellular carcinoma (HepG2) and normal liver cell line (HL-7702) cell lines. See Section 3.3.1 in Supplementary Material.
3.3.1. Cytotoxic activity evaluation
To measure the cytotoxic activity of the synthesized derivatives 2a-11 in hepatocel-lular carcinoma (HepG2) cell line (ATCC Cat No. HB-8065) as well as normal human liver cell line HL-7702 (ATCC Cat. No. 77402), cell viability assay was assessed using MTT assay method. Cells at density of 1 x 104 were seeded in a 96-well plate at 37 °C for 24 h under 5% CO2. After incubation, the cells were treated with different concentrations of the test compounds 2a-11 and incubated for 24 h, then 20 μl of MTT solution at 5 mg/mL was applied and incubated for 4 h at 37 °C. Dimethyl sulphoxide (DMSO) in volume of 100 µl was added to each well to dissolve the purple formazan that had formed. The color inten-sity of the formazan product, which represents the growth condition of the cells, is quan-tified by using an ELISA plate reader (EXL 800, USA) at 570 nm absorbance. The experi-mental conditions were carried out with at least three replicates, and the experiments were repeated at least three times.
3.3.2. Tubulin inhibitions Assay
Compounds 9, 10 and 11 were evaluated for their tubulin inhibitory activity levels according to the manufacturer’s instructions using # abcam Human Beta-tubulin simplestep […]
3.3.3. Cell cycle analysis of compound 9
Cell cycle analysis in HepG2 cells was investigated using fluorescent Annexin V-FITC/ PI detection kit (BioVision EZCellTM Cell Cycle Analysis Kit Catalog #K920) by flow cytometry assay. HepG2 cells at a density of 2 × 10^5 per well were harvested and washed twice in PBS. After that, the cells were incubated at 37 °C and 5% CO2. […] Afterward, medium was stained with DNA flu-orochrome PI for 15 min at 37 °C. The samples were immediately analyzed using Facs Calibur flow cytometer (Becton and Dickinson, Heidelberg, Germany).
3.3.4. Apoptosis assay for compound 9
Apoptosis in HepG2 cells was investigated using fluorescent Annexin V-FITC/ PI de-tection kit (BioVision Annexin V-FITC Apoptosis Detection Kit, Catalog #: K101) by flow cy-tometry assay. HepG2 cells at a density of 2 × 10^5 per well were treated with compound 9 at its IC50 (μM) for 48 h, then the cells were harvested and stained with Annexin V-FITC/ PI dye for 15 min in the dark at 37 °C. The samples were immediately analyzed using FACS Calibur flow cytometer (Becton and Dickinson, Heidelberg, Germany).
3.3.5. Measurement of mitochondrial membrane potential (MMP) for compound 9 MMP was measured by FACS analysis using abcam ab113852TMRE Mitochondrial Membrane Potential Assay Kit with DiOC2(3) staining using MitoProbe™ DiOC2(3) Assay Kit for Flow Cytometry (M34150). After treatment with compound 9 at its IC50 concentra-tion, cells were stained with DiOC2(3) dye for 30 min in the incubator, then harvested and washed with PBS. DiOC2(3)-stained cells were represented with Annexin binding buffer and incubated at 37 °C for 15 min. The samples were immediately analyzed using cell […]
3.3.6. Effect on p53, Bax and Bcl-2 p53, Bax and Bcl2 enzyme activities in HepG2 cells were detected in the presence of com-pound 9 at its IC50 concentration (μM). The levels of the tumor suppressor gene p53, apoptotic markers Bax as well as the anti-apoptotic marker Bcl-2 were assessed using p53 ELISA kit, Human Bax ELISA kit and Bcl-2 Elisa kit. […]

Data set [2] deals with β-tubulin. Put plainly: Tubulin polymerization inhibition (beta-tubulin ELISA in HepG2 cells). In kind it is cell-based, human. The settings on record: HepG2 cells, each compound at its IC50 concentration (9 1.38, 10 2.52, 11 3.21, podo 2.08 μM), ELISA. On the procedure: The selected candidates were tested at a concentration equal to their IC50 concentration dose value. […] See Section 3.3.2 in Supplementary Material. […] page 18: 3.3. Biological studies 3.3.1. Cytotoxic activity evaluation To measure the cytotoxic activity of the synthesized derivatives 2a-11 in hepatocel- lular carcinoma (HepG2) cell line (ATCC Cat No. HB-8065) as well as normal human liver cell line HL-7702 (ATCC Cat. No. 77402), cell viability assay was assessed using MTT assay method. Cells at density of 1 x 104 were seeded in a 96-well plate at 37 °C for 24 h under 5% CO2. After incubation, the cells were treated with different concentrations of the test compounds 2a-11 and incubated for 24 h, then 20 μl of MTT solution at 5 mg/mL was […] Dimethyl sulphoxide (DMSO) in volume of 100 μl was added to each well to dissolve the purple formazan that had formed. The color […] of the formazan product, which represents the growth condition of the cells, is quan- […] by using an ELISA plate reader (EXL 800, USA) at 570 nm absorbance. The experi- mental conditions were carried out with at least three replicates, and the experiments were repeated at least three times. 3.3.2. Tubulin inhibitions Assay […] according to the manufacturer's instructions using # abcam Human Beta-tubulin […] ELISA Kit ab245722. 3.3.3. Cell cycle analysis of compound 9 Cell cycle analysis in HepG2 cells was investigated using fluorescent Annexin V- FITC/ PI detection kit (BioVision EZCellTM Cell Cycle Analysis Kit Catalog #K920) by flow cytometry assay. […] twice in PBS. After that, the cells were incubated at 37 °C and 5% CO2. […] Apoptosis assay for compound 9 Apoptosis in HepG2 cells was investigated using fluorescent Annexin V-FITC/ PI de- tection kit (BioVision Annexin V-FITC Apoptosis Detection Kit, Catalog #: K101) by flow cy- tometry assay. […] The samples were immediately analyzed using FACS Calibur flow cytometer (Becton and Dickinson, Heidelberg, Germany). 3.3.5. Measurement of mitochondrial membrane potential (MMP) for compound 9 MMP was measured by FACS analysis using abcam ab113852TMRE Mitochondrial Membrane Potential Assay Kit with DiOC2(3) staining using MitoProbeTM DiOC2(3) Assay Kit for Flow Cytometry (M34150). After treatment with compound 9 at its IC50 concentra- tion, cells were stained with DiOC2(3) dye for 30 min in the incubator, then harvested and washed with PBS. […] The samples were immediately analyzed using cell Quest software. […] Effect on p53, Bax and Bcl-2 p53, Bax and Bcl2 enzyme activities in HepG2 cells were detected in the presence of com- pound 9 at its IC50 concentration (μM). The levels of the tumor suppressor gene p53, apoptotic markers Bax as well as the anti-apoptotic marker Bcl-2 were assessed using p53 ELISA kit, Human Bax ELISA kit and Bcl-2 Elisa kit. […]

On to `COc1ccc(C(=O)N/C(=C\c2cc(OC)c(OC)c(OC)c2)C(=O)NNc2ccccc2)cc1OC` (hydrate or solvate) [Compound 5, (Z)-3,4-Dimethoxy-N-(3-oxo-3-(2-Phenylhydrazinyl)-1-(3,4,5-Trimethoxyphenyl)prop-1-en-2-yl)benzamide], for which the melting point was 248 to 250 °C.
With `COC(=O)/C(=C/c1cc(OC)c(OC)c(OC)c1)NC(=O)c1ccc(OC)c(OC)c1` [Compound 2a, (Z)-Methyl 2-(3,4-Dimethoxybenzamido)-3-(3,4,5-Trimethoxyphenyl)acrylate], the melting point lay within 248 to 250 °C. The same compound returned an IC50 in data set [1] of 14.4 ± 0.82 µM. Further, the IC50 in data set [1] (Homo sapiens, HepG2, 24 h) is less than 20 µM.
In turn, `CCOC(=O)/C(=C/c1cc(OC)c(OC)c(OC)c1)NC(=O)c1ccc(OC)c(OC)c1` [Compound 2b, (Z)-Ethyl 2-(3,4-Dimethoxybenzamido)-3-(3,4,5-Trimethoxyphenyl)acrylate] showed a melting point of 248 to 250 °C. In addition, the IC50 in data set [1] worked out at 11.1 ± 0.77 µM. Further, the IC50 in data set [1] (Homo sapiens, HepG2, 24 h) is less than 20 µM.
`COc1ccc(C(=O)N/C(=C\c2cc(OC)c(OC)c(OC)c2)C(=O)NCC(=O)O)cc1OC` [Compound 3a, (Z)-2-(2-(3,4-Dimethoxybenzamido)-3-(3,4,5-Trimethoxyphenyl)acrylamido)acetic Acid] came in with a melting point of 248 to 250 °C. In data set [1], this compound returned a concentration for half-maximal inhibition (IC50) of 8.13 ± 0.54 µM. The IC50 in data set [1] (Homo sapiens, HepG2, 24 h) is less than 10 µM.
Taken in the same sequence, the figures for `COc1ccc(C(=O)N/C(=C\c2cc(OC)c(OC)c(OC)c2)C(=O)NC(C)C(=O)O)cc1OC` (stereo not drawn) [Compound 3b, (Z)-2-(2-(3,4-Dimethoxybenzamido)-3-(3,4,5-Trimethoxyphenyl)acrylamido)propanoic Acid] were 248 to 250 °C, 19.4 ± 1.43 µM and less than 20 µM.
Take `COc1ccc(C(=O)N/C(=C\c2cc(OC)c(OC)c(OC)c2)C(=O)Nc2cccc(C)c2)cc1OC` [Compound 4a, (Z)-3,4-Dimethoxy-N-(3-oxo-3-(M-tolylamino)-1-(3,4,5-Trimethoxyphenyl)prop-1-en-2-yl)benzamide]: the melting point was in the range of 248 to 250 °C. Besides, the IC50 in data set [1] (Homo sapiens, HepG2, 24 h) is 45.5 ± 2.89 µM.
As to `COc1ccc(C(=O)N/C(=C\c2cc(OC)c(OC)c(OC)c2)C(=O)Nc2ccc(O)cc2)cc1OC` [Compound 4b, (Z)-N-(3-(4-Hydroxyphenylamino)-3-oxo-1-(3,4,5-Trimethoxyphenyl)prop-1-en-2-yl)-3,4-Dimethoxybenzamide], the melting point fell in the range of 248 to 250 °C. Moreover, in data set [1], 17.7 ± 1.1 µM corresponded to half-maximal inhibition (IC50). The IC50 in data set [1] (Homo sapiens, HepG2, 24 h) is less than 20 µM.
Compound `COc1ccc(NC(=O)/C(=C/c2cc(OC)c(OC)c(OC)c2)NC(=O)c2ccc(OC)c(OC)c2)cc1` [Compound 4c, (Z)-3,4-Dimethoxy-N-(3-(4-Methoxyphenylamino)-3-oxo-1-(3,4,5-Trimethoxyphenyl)prop-1-en-2-yl)benzamide] came in with a melting point of 248 to 250 °C. Besides, in data set [1] (Homo sapiens, HepG2, 24 h), the midpoint of inhibition, the IC50, lay at 23.7 ± 1.37 µM.
With `COc1ccc(C(=O)N/C(=C\c2cc(OC)c(OC)c(OC)c2)C(=O)NNc2ccccc2)cc1OC` [Compound 5, (Z)-3,4-Dimethoxy-N-(3-oxo-3-(2-Phenylhydrazinyl)-1-(3,4,5-Trimethoxyphenyl)prop-1-en-2-yl)benzamide], the IC50 in data set [1] is 9.24 ± 0.52 µM; in data set [1] (Homo sapiens, HepG2, 24 h) it was less than 10 µM.
`COc1ccc(C(=O)N/C(=C\c2cc(OC)c(OC)c(OC)c2)C(=O)NNC(=O)c2ccncc2)cc1OC` [Compound 6, (Z)-N-(3-(2-Isonicotinoylhydrazinyl)-3-oxo-1-(3,4,5-Trimethoxyphenyl)prop-1-en-2-yl)-3,4-Dimethoxybenzamide] gave a melting point of 248 to 250 °C. The same compound returned an IC50 in data set [1] of 8.74 ± 0.57 µM. Further, the IC50 in data set [1] (Homo sapiens, HepG2, 24 h) was less than 10 µM.
Regarding `COc1ccc(C2=N/C(=C\c3cc(OC)c(OC)c(OC)c3)C(=O)N2c2ccc(O)cc2)cc1OC` [Compound 7a, (Z)-2-(3,4-Dimethoxyphenyl)-1-(4-Hydroxyphenyl)-4-(3,4,5-Trimethoxybenzylidene)-1H-Imidazol-5(4H)-one], the melting point lay in the range of 248 to 250 °C.
For the compound `COc1ccc(N2C(=O)/C(=C/c3cc(OC)c(OC)c(OC)c3)N=C2c2ccc(OC)c(OC)c2)cc1` [Compound 7b, (Z)-2-(3,4-Dimethoxyphenyl)-1-(4-Methoxyphenyl)-4-(3,4,5-Trimethoxybenzylidene)-1H-Imidazol-5(4H)-one], the melting point was 248 to 250 °C. Moreover, 6.45 ± 0.24 µM corresponded to half-maximal inhibition in data set [1] (IC50). The concentration for half-maximal inhibition (IC50) in data set [1] (Homo sapiens, HepG2, 24 h) is less than 10 µM.
Compound `COc1ccc(C2=N/C(=C\c3cc(OC)c(OC)c(OC)c3)C(=O)NN2C(N)=S)cc1OC` [Compound 8, (Z)-3-(3,4-Dimethoxyphenyl)-6-oxo-5-(3,4,5-Trimethoxybenzylidene)-5,6-Dihydro-1,2,4-Triazine-2(1H)-Carbothioamide] registered a melting point of 248 to 250 °C.
`COc1ccc(C2=N/C(=C\c3cc(OC)c(OC)c(OC)c3)C(=O)NN2C(=O)c2ccncc2)cc1OC` [Compound 10, (Z)-3-(3,4-Dimethoxyphenyl)-2-Isonicotinoyl-5-(3,4,5-Trimethoxybenzylidene)-1,2-Dihydro-1,2,4-Triazin-6(5H)-one] came in with a melting point of 248 to 250 °C. The same compound had an IC50 in data set [1] (Homo sapiens, HepG2, 24 h) of 2.52 ± 0.24 µM. In addition, the “β-tubulin polymerization inhibition percentage” value in data set [2] is on record as 80.51%.

Values taken from article PMC9322052, “Synthesis and Biological Activity Screening of Newly Synthesized Trimethoxyphenyl-Based Analogues as Potential Anticancer Agents” (Molecules, 2022).
